Experimental data reported in ChEMBL document CHEMBL5375956, “Discovery of Pyrazolo[1,5-a]pyrimidine Derivative as a Novel and Selective ALKBH5 Inhibitor for the Treatment of AML” (J Med Chem, 2023).
Calls of active or inactive are those of the source. The rule behind the calls is not given here.

How the values were obtained:
[1] = MRT in Sprague-Dawley rat at 10 mg/kg, po measured for 1 to 1440 mins by LC-MS/MS analysis; format: ADME, organism-based; details: in vivo, time 1-1440 min
[2] = system: MV4-11; assay: Antitumor activity against human MV4-11 cells xenografted in nude mouse assessed as reduction in tumor weight at 10 to 40 mg/kg, ip treated every day for 14 days; format: functional, organism-based; details: dose 10-40 mg/kg, time 14.0 day
[3] = biological target: T1, RNA demethylase ALKBH5 (Homo sapiens, UniProt Q6P6C2); assay: Binding affinity to NT-647-NHS fluorescent dye-labeled wild-type ALKBH5 (66 to 292 residues)(unknown origin) expressed in Escherichia coli BL21(DE3) using m6A-ssDNA as substrate assessed as dissociation constant incubated for 15 mins by MST assay
Target sequence in this assay (Q6P6C2 whole entry, the tested form may be a part): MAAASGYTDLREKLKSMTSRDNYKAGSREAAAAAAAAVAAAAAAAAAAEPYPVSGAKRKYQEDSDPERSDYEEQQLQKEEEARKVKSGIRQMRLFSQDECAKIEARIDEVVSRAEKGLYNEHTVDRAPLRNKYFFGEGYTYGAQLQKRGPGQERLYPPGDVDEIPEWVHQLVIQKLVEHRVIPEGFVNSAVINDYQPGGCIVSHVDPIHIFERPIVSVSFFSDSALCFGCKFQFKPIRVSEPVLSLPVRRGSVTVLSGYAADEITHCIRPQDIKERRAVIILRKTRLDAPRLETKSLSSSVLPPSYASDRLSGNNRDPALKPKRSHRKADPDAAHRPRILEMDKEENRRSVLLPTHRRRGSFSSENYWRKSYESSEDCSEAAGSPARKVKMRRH

[4] = Toxicity in nude mouse xenografted with human MV4-11 cells assessed as heart weight change at 10 to 40 mg/kg, ip treated every day for 14 days; format: organism-based; details: in vivo, 336 h, dose 10-40 mg/kg, time 14 day
[5] = biological target: T1, RNA demethylase ALKBH5; assay: Inhibition of ALKBH5 (66 to 292 residues)(unknown origin) expressed in Escherichia coli BL21(DE3) using 5'-ATTGTCA(m6A)CAGCAGA-FAM-3' as substrate incubated for 30 mins in presence of 0.2 uM of 2-OG by FP based competitive binding assay
Target sequence in this assay (Q6P6C2 whole entry, the tested form may be a part): as above

[6] = system: MOLM-13; assay: Induction of apoptosis in human MOLM-13 cells assessed as early apoptosis cells at 10 uM incubated for 48 hrs by Annexin V-FITC/PI staining based flow cytometry (reference value: 2.72 %); format: functional
[7] = system: MV4-11; assay: Downregulation of TACC3 mRNA level in human MV4-11 cells at 5 to 10 uM incubated for 48 hrs by qRT-PCR analysis; format: functional, cell-based; details: dose 5-10 µM
[8] = Apparent oral clearance in Sprague-Dawley rat at 10 mg/kg, po measured for 1 to 1440 mins by LC-MS/MS analysis; format: ADME, organism-based; details: in vivo, time 1-1440 min
[9] = biological target: T2, Alpha-ketoglutarate-dependent dioxygenase alkB homolog 3 (Homo sapiens) (UniProt Q96Q83); assay: Inhibition of ALKBH3 (62 to 286 residues)(unknown origin) expressed in Escherichia coli BL21(DE3) using 5'-TAGACATTGCCATTCTCGATAGG(m6A)-TCCGGTCAAACCTAGACGAATTCCA-3' as substrate at 100 uM incubated for 2 hrs by restriction endonuclease digestion assay
T2 sequence (whole entry): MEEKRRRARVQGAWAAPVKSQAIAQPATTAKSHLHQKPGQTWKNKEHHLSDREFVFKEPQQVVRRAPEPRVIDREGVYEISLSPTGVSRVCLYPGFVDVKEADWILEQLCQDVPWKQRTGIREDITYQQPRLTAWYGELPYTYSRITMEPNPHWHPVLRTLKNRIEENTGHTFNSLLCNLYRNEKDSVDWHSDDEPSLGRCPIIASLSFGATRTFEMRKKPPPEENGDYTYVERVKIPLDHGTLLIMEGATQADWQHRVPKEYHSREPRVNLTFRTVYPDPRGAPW

[10] = Metabolic stability in rat liver microsomes assessed as clearance measured upto 240 mins by LC-MS/MS analysis; format: ADME, Microsome; details: read-out: CLH
[11] = system: MV4-11; assay: Antitumor activity against human MV4-11 cells xenografted in nude mouse assessed as tumor growth inhibition at 20 mg/kg, ip treated every day for 14 days relative to control; format: functional; details: MV4-11, 336 h, time 14 day, read-out: TGI
[12] = Toxicity in nude mouse xenografted with human MV4-11 cells assessed as liver weight change at 10 to 40 mg/kg, ip treated every day for 14 days; format: organism-based; details: in vivo, 336 h, dose 10-40 mg/kg, time 14 day
[13] = system: MOLM-13; assay: Downregulation of TACC3 level in human MOLM-13 cells upto 10 uM incubated for 48 hrs by Western blot analysis; format: functional, cell-based
[14] = system: MV4-11; assay: Induction of apoptosis in human MV4-11 cells assessed as viable cells at 10 uM incubated for 48 hrs by Annexin V-FITC/PI staining based flow cytometry (reference value: 89.8 %); format: functional; details: read-out: Activity
[15] = system: MV4-11; assay: Antiproliferative activity against human MV4-11 cells assessed as inhibition of cell proliferation incubated for 72 hrs by Cell Titer Luminescence assay; format: functional, cell-based; details: MV4-11, 72 h
[16] = system: MOLM-13; assay: Induction of apoptosis in human MOLM-13 cells assessed as necrotic cells at 5 uM incubated for 48 hrs by Annexin V-FITC/PI staining based flow cytometry (reference value: 1.00 %); format: functional
[17] = Cmax in Sprague-Dawley rat at 10 mg/kg, po measured for 1 to 1440 mins by LC-MS/MS analysis; format: ADME, organism-based; details: in vivo
[18] = system: MOLM-13; assay: Downregulation of TACC3 mRNA level in human MOLM-13 cells at 5 to 10 uM incubated for 48 hrs by qRT-PCR analysis; format: functional, cell-based; details: dose 5-10 µM
[19] = biological target: T1, RNA demethylase ALKBH5; assay: Inhibition of ALKBH5 (66 to 292 residues)(unknown origin) expressed in Escherichia coli BL21(DE3) using 5'-ATTGTCA(m6A)CAGCAGA-FAM-3' as substrate incubated for 30 mins in presence of 200 uM of 2-OG by FP based competitive binding assay
Target sequence in this assay (Q6P6C2 whole entry, the tested form may be a part): as the sequence (Q6P6C2 whole entry, the tested form may be a part) above

[20] = system: HUVEC; assay: Effect on TACC3 mRNA level in HUVEC cells at 5 to 10 uM incubated for 48 hrs by qRT-PCR analysis; format: functional, cell-based; details: Homo sapiens, dose 5-10 µM
[21] = system: MV4-11; assay: Induction of apoptosis in human MV4-11 cells assessed as viable cells at 5 uM incubated for 48 hrs by Annexin V-FITC/PI staining based flow cytometry (reference value: 89.8 %); format: functional; details: read-out: Activity
[22] = Half life in Sprague-Dawley rat at 10 mg/kg, po measured for 1 to 1440 mins by LC-MS/MS analysis; format: ADME, organism-based; details: in vivo, time 1-1440 min
[23] = system: MOLM-13; assay: Antiproliferative activity against human MOLM-13 cells assessed as inhibition of cell proliferation incubated for 72 hrs by Cell Titer Luminescence assay; format: functional, cell-based; details: MOLM-13, 72 h
[24] = system: MV4-11; assay: Downregulation of c-Myc level in human MV4-11 cells upto 10 uM incubated for 48 hrs by Western blot analysis; format: functional, cell-based
[25] = system: HEK293; assay: Effect on c-Myc mRNA level in HEK293 cells at 5 to 10 uM incubated for 48 hrs by qRT-PCR analysis; format: functional, cell-based; details: Homo sapiens, dose 5-10 µM
[26] = system: HEK293; assay: Antiproliferative activity against HEK293 cells assessed as inhibition of cell proliferation incubated for 72 hrs by Cell Titer Luminescence assay; format: functional, cell-based; details: Homo sapiens, HEK293, 72 h
[27] = biological target: T1, RNA demethylase ALKBH5; assay: Inhibition of ALKBH5 (66 to 292 residues)(unknown origin) expressed in Escherichia coli BL21(DE3) using 5'-ATTGTCA(m6A)CAGCAGA-FAM-3' as substrate incubated for 30 mins in presence of 2 uM of 2-OG by FP based competitive binding assay
Target sequence in this assay (Q6P6C2 whole entry, the tested form may be a part): as the sequence (Q6P6C2 whole entry, the tested form may be a part) above

[28] = biological target: T1, RNA demethylase ALKBH5; assay: Inhibition of ALKBH5 in HEK293 cells assessed as increase in m6A RNA level at 10 to 40 uM by colorimetric assay; format: cell-based; details: dose 10-40 µM
Target sequence in this assay (Q6P6C2 2-394 limits assumed): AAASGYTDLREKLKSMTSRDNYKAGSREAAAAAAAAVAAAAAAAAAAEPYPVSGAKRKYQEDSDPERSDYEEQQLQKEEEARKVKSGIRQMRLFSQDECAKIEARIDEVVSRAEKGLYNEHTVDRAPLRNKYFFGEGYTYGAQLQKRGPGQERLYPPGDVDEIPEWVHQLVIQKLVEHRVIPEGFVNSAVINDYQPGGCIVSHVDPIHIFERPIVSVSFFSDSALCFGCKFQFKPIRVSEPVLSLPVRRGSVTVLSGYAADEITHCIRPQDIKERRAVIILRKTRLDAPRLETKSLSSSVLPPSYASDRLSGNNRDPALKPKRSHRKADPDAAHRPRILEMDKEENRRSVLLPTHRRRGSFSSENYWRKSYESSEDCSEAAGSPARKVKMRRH

[29] = biological target: T1, RNA demethylase ALKBH5; assay: Inhibition of ALKBH5 (66 to 292 residues)(unknown origin) expressed in Escherichia coli BL21(DE3) using 5'-ATTGTCA(m6A)CAGCAGA-FAM-3' as substrate incubated for 30 mins by FP assay
Target sequence in this assay (Q6P6C2 whole entry, the tested form may be a part): as the sequence (Q6P6C2 whole entry, the tested form may be a part) above

- MRT [1]: 2.8 h
- Kd [3]: 11.2 µM
- IC50 [5]: 4.89 µM
- CL/F [8]: 28.8 mL/min/kg
- inhibition [9]: inactive
- microsomal CLint [10]: 100 µL/min/mg
- IC50 [15]: 1200 nM
- Cmax [17]: 2340 ng/mL
- IC50 [19]: 4.46 µM
- half-life [22]: 148 min
- IC50 [23]: 450 nM
- IC50 [27]: 4.64 µM
- inhibition [28]: Active
- IC50 [29]: 2970 nM
Compound: O=C(OCc1ccc(C(F)(F)F)cc1)c1ccc(-c2cc3ncc(C(=O)c4c(O)ccc([N+](=O)[O-])c4O)cn3n2)cc1
- Activity [2]: Active
- Activity [4]: Non-Toxic
- Activity [6]: 2.88%
- Activity [7]: Active
- inhibition in vivo at 20 mg/kg [11]: 68.9%
- Activity [12]: Non-Toxic
- Activity [13]: Active
- viability at 10 µM [14]: 39.9%
- Activity [16]: 3.37%
- Activity [18]: Active
- Activity [20]: inactive
- viability at 5 µM [21]: 59%
- Activity [24]: Active
- Activity [25]: inactive
- IC50 [26]: 97.4 µM
